Assay results published in the NIST ThermoML archive (doi:10.1021/je200697m).
± gives the expanded uncertainty stated by the source.

Conditions: Liquid

SMILES	vapor or sublimation pressure (337.84 K) [kPa]	vapor or sublimation pressure (363.41 K) [kPa]
CO [methanol]	101.32 ± 1.7	–
COC(=O)OC [dimethyl carbonate]	–	101.32 ± 1.7
